Here are results for 28 compounds from PubChem BioAssay AID179 (DTP/NCI, 2004).

Where a SMILES comes first, the peptide text is derived from it. Bridges are numbered along the chain shown (N, C = ends). The star is where a group is joined. Cbz = O=C(OCc1ccccc1)*; OBn = c1ccc(CO*)cc1

The subject of the assay is CEM cells HIV-1 protection, formazan growth assay. Nature of the assay: NCI AIDS Antiviral Assay. The settings on record: for IC50: measured here: growth of uninfected CEM cells. In a few lines:
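Steps: treat uninfected and HIV-1-infected human CEM cells at five drug levels; quantify growth by soluble formazan; retest any compound reaching 50% protection; classify actives from the retest.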

As to `O=C(Nc1ccc(/C=C/c2ccc(NC(=O)c3ccc(O)cc3O)cc2S(=O)(=O)O)c(S(=O)(=O)O)c1)c1ccc(O)cc1O`, the EC50 is greater than 151 µM and the IC50 came to 126 µM.
Taken in the same sequence, the figures for `COC(=O)[C@H]1[C@@H](C(C)C)O[C@@H](C(C)C)O[C@H]1C(F)(F)F` were greater than 200 µM and greater than 200 µM.
Taken in the same sequence, the figures for `Cc1ccc2c(c1)C(c1ccccc1)C1COC(=O)C1O2` (stereo unspecified) were greater than 93.3 µM and 5.25 µM.
For the compound `CC(C)(C)[Si](C)(C)OC1(CCc2ccccc2OS(=O)(=O)C(F)(F)F)CCCC=C1COCc1ccccc1` (stereo unspecified), the EC50 was greater than 200 µM and the IC50 turned out to be 39.8 µM.
Regarding `CC(=O)CC(=O)/C=C/c1cccs1`, the EC50 is greater than 257 µM and the IC50 was found to be 178 µM.
As for `CCOC(=O)C1=C(O)C(=O)c2ccoc2C1=O`, the EC50 was greater than 79.4 µM and the IC50 is greater than 79.4 µM.
Turning to `Nc1ccc(S(=O)(=O)NNc2nc(N3CCCCC3)nc(N3CCCCC3)n2)cc1`, the EC50 was greater than 200 µM and the IC50 was greater than 200 µM.
For `NC(=S)N/N=C/c1ncccc1O`, the EC50 is greater than 12.6 µM and the IC50 amounted to 0.794 µM.
For the compound `Cn1cnc([N+](=O)[O-])c1SSc1c([N+](=O)[O-])ncn1C`, the EC50 is greater than 200 µM and the IC50 is greater than 200 µM.
Take `CCOC(=O)C(/C=N/C(=S)Nc1ccc(S(=O)(=O)Nc2ccccn2)cc1)=C(/O)c1ccccc1`: the EC50 was greater than 200 µM and the concentration for half-maximal inhibition (IC50) was 135 µM.
Taken in the same sequence, the figures for `CN1C(=O)C2(Nc3ccccc3N2)c2ccccc21` were greater than 70.8 µM and greater than 70.8 µM.
For `CC(=O)/C=C/c1ccc(C)cc1`, the EC50 is greater than 63.1 µM and the IC50 was greater than 63.1 µM.
Turning to `C=CCNC(=O)CN(CC(=O)OC)C1CCCCC1N(CC(=O)OC)CC(=O)OC` (stereo unspecified), the EC50 is greater than 200 µM and the half-inhibitory concentration (IC50) is greater than 200 µM.
For the compound `Cn1c(=O)c2c(n(C)c1=O)n1c(=O)c3ccccc3nc1n2C`, the EC50 is greater than 200 µM and the IC50 is greater than 200 µM.
With `Cc1c(Cl)cccc1NC(=O)CN(CC(C)C)CC(C)C`, the EC50 is greater than 200 µM and the IC50 stood at 33.1 µM.
Taken in the same sequence, the figures for `COC(=O)C1CCC(=O)NCCCCC(NC(=O)C(CC(=O)OCc2ccccc2)NC(=O)OCc2ccccc2)C(=O)N1` (stereo not drawn) (Cbz-Asp(OBn)-Lys-Glu-OMe; lactam 2-3; configuration not given here) were greater than 200 µM and greater than 200 µM.
`COc1ccc(-c2onc(-c3ccc([N+](=O)[O-])cc3)c2C2=NCCN2)cc1`: the EC50 is greater than 12.9 µM and the IC50 is greater than 12.9 µM.
As to `COc1ccc(/C=C/C(=O)c2sc(Nc3ccc([N+](=O)[O-])cc3)nc2C)cc1`, the EC50 is greater than 47.9 µM and the half-inhibitory concentration (IC50) turned out to be 39.8 µM.
For `Cc1cn(COCCN2C(=O)c3ccccc3C2=O)c(=O)[nH]c1=O`, in that order: greater than 200 µM and greater than 200 µM.
For `O=P(O)(O)C1(P(=O)(O)O)CC1`, in that order: greater than 251 µM and greater than 251 µM.
Taken in the same sequence, the figures for `Nc1ccc(C(=O)NN2C(=O)C(Cl)C2c2ccc([N+](=O)[O-])cc2)cc1` (stereo unspecified) were greater than 200 µM and 4.07 µM.
With `CC(C)(C)C1CNP(=O)(c2ccccc2)OC1` (stereo unspecified), the EC50 is greater than 70.8 µM and the concentration for half-maximal inhibition (IC50) was greater than 70.8 µM.
With `CCOC(=O)c1nc2ccccc2nc1NCc1ccc(OC)c(OC)c1`, the EC50 was greater than 200 µM and the IC50 was greater than 200 µM.
`NNc1ccc2cc(S(=O)(=O)O)cc(S(=O)(=O)O)c2c1`: the EC50 is greater than 741 µM and the IC50 was found to be 331 µM.
Take `O=c1oc2ncccc2n1Cc1ccc([N+](=O)[O-])cc1`: the EC50 is greater than 200 µM and the IC50 was greater than 200 µM.
As for `CC(C)=CCC1=C(O)C(CC=C(C)C)(CC=C(C)C)C(=O)C(C(=O)C(C)C)=C1O`, the EC50 was greater than 33.9 µM and the IC50 was found to be 7.08 µM.
For `COc1ccc(CNC(=O)NCn2cc(-c3ccccc3)nn2)cc1`, the EC50 is greater than 200 µM and the IC50 is greater than 200 µM.
With `COc1ccc(C2=NNc3n[nH]c(=S)n3N2)cc1OC`, the EC50 was greater than 64.6 µM and the IC50 was greater than 64.6 µM.

As usually defined, the EC50 is the concentration giving half of the maximal effect. The term IC50 denotes the concentration at which inhibition is half-maximal. A lower IC50 goes with inhibition by little substance.
